In patent publication US20240400986A1, “MEMBRANE BOUND COMPOSITIONS AND METHODS RELATING TO SAME” (FLAGSHIP PIONEERING INNOVATIONS VII, LLC, priority 2021, published 2024):
Where two headings read alike, the source gives them in different places.

Columns and labels:
[1] = system: cardiomyocytic cell line derived from human ventricular heart tissue; assay: Cell viability in cardiomyocyte compound screen (CellTiter-Glo); type: cell-based
From the text: Cells were stained with Hoechst 34580, CellTracker Green/CellMask Green Actin and MitoTracker Deep Red to detect nuclear material, cytoplasm/F-actin, and mitochondria, respectively, and cultured in poly-L-lysine-coated 96-well glass bottom plates at 15,800 cells/cm^2 and allowed to adhere overnight. For the screening, a total of 100 randomly organized compounds (TargetMol) were divided in 5 groups. Each group included an untreated condition, a vehicular DMSO control, and a known high-gigasome producing condition to comparatively study gigasome production rates. As a cell death control group, 500 nM Staurosporine was added to induce apoptosis. Cultures were incubated for 24 hours under gigasome inducing conditions at concentrations ranging between 10 nM and 10,000 nM. […] Cells remaining in the 96-well plates were assessed for viability using CellTiter-Glo (Promega).

[2] = system: cardiomyocytic cell line derived from human ventricular heart tissue; assay: Small molecule compound screen of gigasome production in cardiomyocytic monocultures;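 as to all read-outs here: gigasomes shed into the culture medium were imaged by confocal microscopy and counted as round particles lacking nuclear signal, extrapolated to the whole well, fold change is relative to DMSO vehicle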; conditions: for Number of Gigasomes Produced / Fold Change of Gigasomes Produced vs. DMSO / downregulation of gigasome production: cardiomyocytes; for downregulation of gigasome production: doses 10-10,000 nM
Method: For the screening, a total of 100 randomly organized compounds (TargetMol) were divided in 5 groups. Each group included an untreated condition, a vehicular DMSO control, and a known high-gigasome producing condition to comparatively study gigasome production rates. As a cell death control group, 500 nM Staurosporine was added to induce apoptosis. Cultures were incubated for 24 hours under gigasome inducing conditions at concentrations ranging between 10 nM and 10,000 nM. […] The Zeiss ZEN Blue software was used to distribute imaging fields of view (positions) to create an unbiased imaging sample of a well. 5 images were taken using a Zeiss LSM 900 confocal microscope. […] The BioApps ZEN software package was used to perform cell nucleus segmentation and counting. After 24 hours, gigasomes were harvested from the cell culture media by gently removing from the top of each 96-well ⅔ of the total volume without disturbing the cell layer (containing the settled gigasomes) and by adding to each well the same amount of PBS containing 0.5 mM EDTA. The wells were washed twice gently, and the gigasome-containing media/0.5 mM EDTA PBS wash was transferred into the well of a 384-well glass bottom plate. Cells remaining in the 96-well plates were assessed for viability using CellTiter-Glo (Promega).
For gigasome analysis in 384-well plates, the Zeiss ZEN Blue software was used to distribute positions to create an unbiased imaging sample of a well. 6 images per well were taken using a Zeiss LSM 900 confocal microscope. […] A watershed binary segmentation step was performed to separate grouped objects. For each particle in the mask, characteristic parameters of the particle were calculated and saved. […] Particles of interest were identified by thresholding by area and circularity. […] Circularity, defined by the formula 4pi(area/perimeter^2, was set to be between 0.8, where a value of 1.0 is a perfect circle, and a value of 0 is a line. Gigasomes were identified from the particles of interest by thresholding by mean nuclear signal. The nuclear signal threshold was set using a value equal to one quarter of a threshold value calculated by the Li auto-threshold algorithm applied to the distribution of all particles of interest. Particles of interest with nuclear signal below this value were considered “negative” for nuclear material and were identified as gigasomes. A sampling factor was calculated to extrapolate the total quantity of a type of object (particles, particles of interest, gigasomes) in the well. The sampling factor was the percentage of the well's area that was imaged. […] In some experiments, the number of cells in the cell cultures were estimated with a cell counter. […] The normalized quantity or distribution of objects was described as a quantity or distribution of objects per 1000 cells.

[3] = system: neuronal cell line derived from human neuroblastoma; assay: Small molecule compound screen of gigasome production in neuronal monocultures; conditions: for Fold Change of Gigasomes Produced vs. DMSO / Number of Gigasomes Produced / downregulation of gigasome production: neuronal cells; for Fold Change of Gigasomes Produced vs. DMSO / Number of Gigasomes Produced: 24 hours; for downregulation of gigasome production: doses 10-10,000 nM
From the text: To quantify and characterize gigasome production using microscopy, while tracking cell viability/phenotype, a multi-readout system was developed that allowed simultaneous analysis of gigasomes harvested from cell culture media supernatants and respective gigasome producing cell viability. […] For the screening, a total of 99 compounds (TargetMol) were divided in 5 groups. Each group included an untreated condition, a vehicular DMSO control, and a known high-gigasome producing condition to comparatively study gigasome production rates. As a cell death control group, 500 nM Staurosporine was added to induce apoptosis. Cultures were incubated for 24 hours under gigasome inducing conditions at concentrations ranging between 10 nM and 10,000 nM. Before the end of the treatment, live neuronal cultures were imaged. The Zeiss ZEN Blue software was used to distribute imaging fields of view (positions) to create an unbiased imaging sample of a well. 5 images were taken using a Zeiss LSM 900 confocal microscope. […] The BioApps ZEN software package was used to perform cell nucleus segmentation and counting. After 24 hours, gigasomes were harvested from the cell culture media by gently removing from the top of each 96-well ⅔ of the total volume without disturbing the cell layer (containing the settled gigasomes) and by adding to each well the same amount of PBS. The wells were washed twice gently, and the gigasome-containing media/PBS wash was transferred into the well of a 384-well glass bottom plate. Cells remaining in the 96-well plates were assessed for viability using CellTiter-Glo (Promega).
For gigasome analysis in 384-well plates, the Zeiss ZEN Blue software was used to distribute positions to create an unbiased imaging sample of a well. 6 images per well were taken using a Zeiss LSM 900 confocal microscope.
A watershed binary segmentation step was performed to separate grouped objects. For each particle in the mask, characteristic parameters of the particle were calculated and saved.
Particles of interest were identified by thresholding by area and circularity. […] Circularity, defined by the formula 4pi(area/perimeter^2, was set to be between 0.8 and 1, where a value of 1.0 is a perfect circle, and a value of 0 is a line. Gigasomes were identified from the particles of interest by thresholding by mean nuclear signal. The nuclear signal threshold was set using a value equal to one fourth of a threshold value calculated by the Li auto-threshold algorithm applied to the distribution of all particles of interest. Particles of interest with nuclear signal below this value were considered “negative” for nuclear material and were identified as gigasomes. A sampling factor was calculated to extrapolate the total quantity of a type of object (particles, particles of interest, gigasomes) in the well. The sampling factor was the percentage of the well's area that was imaged. […] The normalized quantity or distribution of objects was described as a quantity or distribution of objects per 1000 cells.

[4] = system: neuronal cell line derived from human neuroblastoma
[5] = Homo sapiens, Cardiomyocyte, 24 h, read-out: Fold Change of Gigasomes Produced vs. DMSO
[6] = Table 22, dose 10000 nM, 24 hours
[7] = Table 22, dose 1000 nM, 24 hours
[8] = Table 23 (down-regulators), dose 10 nM, cardiomyocytes
[9] = Table 23 (down-regulators), dose 100 nM, cardiomyocytes
[10] = Table 23 (down-regulators), dose 1000 nM, cardiomyocytes
[11] = Table 23 (down-regulators), dose 10000 nM, cardiomyocytes
[12] = Table 23 (down-regulators), dose 10 nM
[13] = Table 23 (down-regulators), dose 100 nM
[14] = Table 23 (down-regulators), dose 1000 nM
[15] = Table 23 (down-regulators), dose 10000 nM
[16] = Table 22, dose 10 nM, cardiomyocytes, 24 hours
[17] = Table 22, dose 100 nM, 24 hours
[18] = neuronal cells, dose 10000 nM, 24 hours
[19] = neuronal cells, dose 10 nM, 24 hours
[20] = neuronal cells, dose 100 nM, 24 hours
[21] = neuronal cells, dose 1000 nM, 24 hours
[22] = Homo sapiens, 24 h, read-out: Fold Change of Gigasomes Produced vs. DMSO

CCN(CC)CCNC(=O)c1c(C)[nH]c(/C=C2\C(=O)Nc3ccc(F)cc32)c1C [Sunitinib]
Viability ([1]; human, 24 h, 10000 nM): 50-75%
fold induction at 10 µM [2, 5]: 1.5 to 1.75
Number of Gigasomes Produced [2, 6]: 200-225

NC1=N[C@@]2(c3cc(NC(=O)c4ccc(F)cn4)ccc3F)COC[C@H]2CS1 [LY288672, reference compound]
Viability ([1]; human, 24 h, 1000 nM): >75%
fold induction at 1 µM [2, 5]: 1.5 to 1.75
Number of Gigasomes Produced [2, 7]: 175-200

O=S(=O)(c1ccccc1)N(CC(F)(F)F)c1ccc(C(O)(C(F)(F)F)C(F)(F)F)cc1 [Compound T0901317]
Viability ([1]; human, 24 h, 10000 nM): >75%
fold induction at 10 µM [2, 5]: 1 to 1.25
Number of Gigasomes Produced [2, 6]: 150-175

CCCCCCCCCCCCCCOc1ccc(C(=O)O)o1 [TOFA]
Viability [1, 8]: >75%
Viability [1, 9]: 100.0%
Viability [1, 10]: >75%
Viability [1, 11]: 100.0%
Fold Change of Gigasomes Produced vs. DMSO [2, 12]: 1.0-1.25
Number of Gigasomes Produced [2, 12]: 120-135
Fold Change of Gigasomes Produced vs. DMSO [2, 13]: 1.0-1.25
Number of Gigasomes Produced [2, 13]: 105-120
Fold Change of Gigasomes Produced vs. DMSO [2, 14]: 0.75-1.0
Number of Gigasomes Produced [2, 14]: 105-120
Fold Change of Gigasomes Produced vs. DMSO [2, 15]: 0.75-1.0
Number of Gigasomes Produced [2, 15]: 75-90

COC(=O)C=Cc1ccccc1 [Methyl cinnamate]
Viability ([1]; human, 24 h, 1000 nM): >75%
fold induction at 1 µM [2, 5]: 1.25 to 1.5
Number of Gigasomes Produced [2, 7]: 150-175

Nc1ncn([C@@H]2O[C@H](CO)[C@@H](O)[C@H]2O)c(=O)n1 [Compound 5-Azacytidine, 5-Azacytidine]
Viability ([1]; human, 24 h, 1000 nM): 50-75%
fold induction at 1 µM [2, 5]: 1 to 1.25
Number of Gigasomes Produced [2, 7]: 150-175

O=C(Nc1ccncc1)c1cc([N+](=O)[O-])ccc1Cl [Compound T0070907]
Viability [1, 16]: 100%
Viability ([1]; Table 22, dose 100 nM, cardiomyocytes, 24 hours): 100%
Fold Change of Gigasomes Produced vs. DMSO ([2]; Table 22, dose 10 nM, 24 hours): 1.0-1.25
Number of Gigasomes Produced ([2]; Table 22, dose 10 nM, 24 hours): 150-175
Fold Change of Gigasomes Produced vs. DMSO [2, 17]: 1.0-1.25
Number of Gigasomes Produced [2, 17]: 150-175

COc1cc(C(C)=O)ccc1O [Apocynin]
Viability ([1]; human, 24 h, 10 nM): >75%
Viability ([1]; human, 24 h, 10000 nM): >75%
fold induction at 0.01 µM [2, 5]: 1 to 1.25
fold induction at 10 µM [2, 5]: 1 to 1.25
Number of Gigasomes Produced ([2]; Table 22, dose 10 nM, 24 hours): 150-175
Number of Gigasomes Produced [2, 6]: 150-175

CC(N)=NCc1cccc(CN)c1.Cl.Cl [1400W dihydrochloride]
Viability [1, 16]: 100%
Viability [1, 8]: 100.0%
Viability [1, 9]: 100.0%
Viability [1, 10]: 100.0%
Viability [1, 11]: 100.0%
Number of Gigasomes Produced ([2]; Table 22, dose 10 nM, 24 hours): 150-175
Number of Gigasomes Produced [2, 12]: >150
Number of Gigasomes Produced [2, 13]: 90-105
Number of Gigasomes Produced [2, 14]: 90-105
Number of Gigasomes Produced [2, 15]: 50-75

O=C(O)CC[N+](=O)[O-] [3-Nitropropanoic acid, reference compound]
Viability [1, 8]: >75%
Viability [1, 9]: 100.0%
Viability [1, 10]: >75%
Viability [1, 11]: 100.0%
fold induction at 0.01 µM [2, 5]: 0.75 to 1
fold induction at 0.1 µM [2, 5]: 0.75 to 1
fold induction at 1 µM [2, 5]: 0.25 to 0.5
fold induction at 10 µM [2, 5]: 0.25 to 0.5
Number of Gigasomes Produced [2, 12]: 105-120
Number of Gigasomes Produced [2, 13]: 90-105
Number of Gigasomes Produced [2, 14]: 50-75
Number of Gigasomes Produced [2, 15]: 35-50
downregulation of gigasome production ([2]; 24 h): dose-dependent downregulation

Cc1cc(C)c(S(=O)(=O)N(Cc2ccc(-c3cccc(S(C)(=O)=O)c3)cc2)Cc2ccc(C(F)(F)F)o2)c(C)c1 [GSK2033]
Viability ([1]; human, 24 h, 10000 nM): 100%
fold induction at 10 µM [2, 5]: 1.25 to 1.5
Number of Gigasomes Produced [2, 6]: 150-175

CCCCCCCCCCCCCC[N+](C)(C)C.[Br-] [MiTMAB, reference compound]
Fold Change of Gigasomes Produced vs. DMSO ([3]; dose 10000 nM): 2.0-3.0
Number of Gigasomes Produced ([3]; dose 10000 nM): 55-65
Viability [4, 18]: >75%

N#C/C(=C\c1cn(-c2ccccc2)c2ccccc12)C(=O)O [UK-5099, reference compound]
Fold Change of Gigasomes Produced vs. DMSO ([3]; dose 10 nM): 0.5-0.75
Number of Gigasomes Produced ([3]; dose 10 nM): 20-25
Fold Change of Gigasomes Produced vs. DMSO ([3]; dose 100 nM): 0.5-0.75
Number of Gigasomes Produced ([3]; dose 100 nM): 15-20
Fold Change of Gigasomes Produced vs. DMSO ([3]; dose 1000 nM): 0.5-0.75
Number of Gigasomes Produced ([3]; dose 1000 nM): 15-20
Fold Change of Gigasomes Produced vs. DMSO ([3]; dose 10000 nM): 0.25-0.5
Number of Gigasomes Produced ([3]; dose 10000 nM): 10-15
downregulation of gigasome production ([2]; 24 h): dose-dependent downregulation
Viability [4, 19]: 100%
Viability [4, 20]: 100%
Viability [4, 21]: 100%
Viability [4, 18]: 100%

CN[C@H](CC(=O)O)C(=O)O [NMDA, reference compound]
Fold Change of Gigasomes Produced vs. DMSO ([3]; dose 10 nM): 0.75-1.0
Number of Gigasomes Produced ([3]; dose 10 nM): 30-35
Fold Change of Gigasomes Produced vs. DMSO ([3]; dose 100 nM): 0.75-1.0
Number of Gigasomes Produced ([3]; dose 100 nM): 30-35
Fold Change of Gigasomes Produced vs. DMSO ([3]; dose 1000 nM): 0.5-0.75
Number of Gigasomes Produced ([3]; dose 1000 nM): 20-25
Fold Change of Gigasomes Produced vs. DMSO ([3]; dose 10000 nM): 0.25-0.5
Number of Gigasomes Produced ([3]; dose 10000 nM): 15-20
downregulation of gigasome production ([3]; 24 h): dose-dependent downregulation
Viability [4, 19]: 100%
Viability [4, 20]: 100%
Viability [4, 21]: 100%
Viability [4, 18]: 100%

CN1C(=N)N[C@](C)(c2cc(NC(=O)c3ccc(F)cn3)ccc2F)CS1(=O)=O [Verubecestat]
fold induction at 0.01 µM [3, 22]: 0.75 to 1
fold induction at 0.1 µM [3, 22]: 0.5 to 0.75
fold induction at 1 µM [3, 22]: 0.5 to 0.75
fold induction at 10 µM [3, 22]: 0.5 to 0.75
Number of Gigasomes Produced ([3]; dose 10 nM): 35-40
Number of Gigasomes Produced ([3]; dose 100 nM): 25-30
Number of Gigasomes Produced ([3]; dose 1000 nM): 20-25
Number of Gigasomes Produced ([3]; dose 10000 nM): 20-25
Viability [4, 19]: 100%
Viability [4, 20]: 100%
Viability [4, 21]: 100%
Viability [4, 18]: 100%

CCCn1cnc2c(NCc3ccc(C)s3)nc(N[C@H](CC)CO)nc21 [GV-58, reference compound]
Fold Change of Gigasomes Produced vs. DMSO ([3]; dose 10 nM): 0.75-1.0
Number of Gigasomes Produced ([3]; dose 10 nM): 25-30
Fold Change of Gigasomes Produced vs. DMSO ([3]; dose 100 nM): 0.75-1.0
Number of Gigasomes Produced ([3]; dose 100 nM): 20-25
Fold Change of Gigasomes Produced vs. DMSO ([3]; dose 1000 nM): 0.75-1.0
Number of Gigasomes Produced ([3]; dose 1000 nM): 20-25
Fold Change of Gigasomes Produced vs. DMSO ([3]; dose 10000 nM): 0.25-0.5
Number of Gigasomes Produced ([3]; dose 10000 nM): 10-15
downregulation of gigasome production ([3]; 24 h): dose-dependent downregulation
Viability [4, 19]: 100%
Viability [4, 20]: 100%
Viability [4, 21]: 100%
Viability [4, 18]: >75%

O=C(Nc1ccc(O)c(C(=O)O)c1)c1cccc(NC(=O)c2ccco2)c1 [OSS_128167]
Fold Change of Gigasomes Produced vs. DMSO ([3]; dose 10000 nM): 0.5-0.75
Number of Gigasomes Produced ([3]; dose 10000 nM): 20-25
Viability [4, 18]: 100%

COC(=O)c1ccc([C@@H]2c3[nH]c4ccccc4c3C[C@@H](C(=O)OC)N2C(=O)CCl)cc1 [RSL3, reference compound]
Fold Change of Gigasomes Produced vs. DMSO ([3]; dose 1000 nM): 2.0-3.0
Number of Gigasomes Produced ([3]; dose 1000 nM): 55-65
Viability [4, 21]: >75%

C=C(C)[C@@H]1CC[C@]2(C(=O)O)CC[C@]3(C)[C@H](CC[C@@H]4[C@@]5(C)CC[C@H](O)C(C)(C)[C@@H]5CC[C@]43C)[C@@H]12 [Betulinic acid]
fold induction at 0.01 µM [3, 22]: 0.5 to 0.75
fold induction at 0.1 µM [3, 22]: 1.25 to 1.5
fold induction at 10 µM [3, 22]: 1.5 to 1.75
Number of Gigasomes Produced ([3]; dose 10 nM): <35
Number of Gigasomes Produced ([3]; dose 100 nM): 55-65
Number of Gigasomes Produced ([3]; dose 10000 nM): 55-65
Viability ([4]; human, 24 h, 10 nM): 100%
Viability ([4]; human, 24 h, 100 nM): 100%
Viability ([4]; human, 24 h, 10000 nM): 100%
